Common to all, as to test: relative viability (nuclei count vs DMSO), 5 days (fraction); higher = more cells survive
Compound in assay [1]: CC(C)C[C@H](NC(=O)[C@H](CCc1ccccc1)NC(=O)CN1CCOCC1)C(=O)N[C@@H](Cc1ccccc1)C(=O)N[C@@H](CC(C)C)C(=O)[C@@]1(C)CO1 [Carfilzomib] + Cc1nc(Nc2ncc(C(=O)Nc3c(C)cccc3Cl)s2)cc(N2CCN(CCO)CC2)n1 [Dasatinib] (partner 0.075 µM)
In outline:
(§1)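 After 5 days of treatment, lung cancer cells in 1536-well plates were fixed and stained in a single step (final 0.05% Triton X-100, 1% formaldehyde, 1 ug/ml Hoechst) and their nuclei counted on 4× images. Treatment had been applied by pin tool the day after seeding as one drug alone or as a fixed anchor-drug dose with five library-drug doses (not always all listed) in √10 steps. Relative viability is the nuclei count of treated wells divided by that of vehicle wells, and values are medians of duplicate plates.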

Compound in assay [2]: C[C@@H](Oc1cc(-c2cnn(C3CCNCC3)c2)cnc1N)c1c(Cl)ccc(F)c1Cl [Crizotinib] + Cc1cc(Nc2cc(N3CCN(C)CC3)nc(Sc3ccc(NC(=O)C4CC4)cc3)n2)n[nH]1 [Tozasertib] (partner 0.1 µM)
The procedure, abridged:
as §1

Compound in assay [3]: O=C(c1cc(Cc2n[nH]c(=O)c3ccccc23)ccc1F)N1CCN(C(=O)C2CC2)CC1 [Olaparib] + NC(=O)Nc1cc(-c2cccc(F)c2)sc1C(=O)N[C@H]1CCCNC1 [AZD7762] (partner 0.2 µM)
The procedure, abridged: as §1

Compound in assay [4]: O=C(c1cc(Cc2n[nH]c(=O)c3ccccc23)ccc1F)N1CCN(C(=O)C2CC2)CC1 [Olaparib] + COc1cc2c(Oc3ccc(NC(=O)C4(C(=O)Nc5ccc(F)cc5)CC4)cc3F)ccnc2cc1OCCCN1CCOCC1 [Foretinib] (partner 0.25 µM)
The procedure, abridged:
as §1

Compound in assay [5]: C[C@@H](Oc1cc(-c2cnn(C3CCNCC3)c2)cnc1N)c1c(Cl)ccc(F)c1Cl [Crizotinib] + Nc1nc2[nH]cc(CCc3ccc(C(=O)N[C@@H](CCC(=O)O)C(=O)O)cc3)c2c(=O)[nH]1 [Pemetrexed] (partner 0.2 µM)
The procedure, abridged:
as §1

For the cell line NCI-H1793, the relative viability came out at 0.507 in assay [1] (first compound 0.003162 µM); 0.353 in assay [1] (first compound 0.01 µM); 0.376 in assay [1] (first compound 0.03162 µM); 0.389 in assay [1] (first compound 0.1 µM); 0.342 in assay [2] (first compound 0.03162 µM); 0.32 in assay [2] (first compound 0.1 µM). Further, the relative viability in assay [2] (first compound 1 µM) amounted to 0.449; in assay [3] (first compound 0.08 µM), 0.747; in assay [3] (first compound 0.253 µM), 0.438; in assay [3] (first compound 2.53 µM), 0.488; in assay [3] (first compound 8 µM), 0.283; in assay [4] (first compound 0.08 µM) it was 0.684. For the same cell line, the relative viability is 0.624 in assay [4] (first compound 0.253 µM); 0.648 in assay [4] (first compound 2.53 µM); 0.706 in assay [4] (first compound 8 µM); 1.04 in assay [5] (first compound 0.03162 µM); 0.902 in assay [5] (first compound 0.1 µM); 1.2 in assay [5] (first compound 1 µM).

(Values after the supplement of paper PMC10307832.)
